Experimental data as given in US20220323356A1, “METAL (HYDR)OXIDE COMPOSITE COMPRISING POORLY SOLUBLE DRUG, METHOD FOR PREPARING SAME, AND PHARMACEUTICAL COMPOSITION COMPRISING SAME” (priority 2020, published 2022).

Columns and labels:
[1] = in vivo; cited from earlier work
[2] = In-vivo pharmacokinetic analysis of calcined metal (hydr)oxide-docetaxel compositions, single oral administration; settings: rat, 40 mg/kg

Compound	bioavailability (%) [1]	AUC(0-t) [2] [ng·h/mL]	Tmax [2] [h]	half-life [2] [h]	Cmax ([2]; Cmax, Docetaxel PO 40 mg/kg, rats) [ng/mL]
CC(=O)O[C@@]12CO[C@@H]1C[C@H](O)[C@@]1(C)C(=O)[C@H](O)C3=C(C)[C@@H](OC(=O)[C@H](O)[C@@H](NC(=O)OC(C)(C)C)c4ccccc4)C[C@@](O)([C@@H](OC(=O)c4ccccc4)[C@H]21)C3(C)C [Docetaxel]	8%	47.5	0.5	9.41	5.25
Oc1ncnc2[nH]ncc12 [allopurinol]	67%	–	–	–	–
CCN1CCN(Cc2ccc(Nc3ncc(F)c(-c4cc(F)c5nc(C)n(C(C)C)c5c4)n3)nc2)CC1 [abemaciclib(USAN), abemaciclib]	45%	–	–	–	–
Oc1c(Cl)cc(Cl)c(Cl)c1Cc1c(O)c(Cl)cc(Cl)c1Cl [hexachlorophene]	4~10%	–	–	–	–
CCN(CC)Cc1cc(Nc2ccnc3cc(Cl)ccc23)ccc1O [amodiaquine]	22%	–	–	–	–
